Experiments:
Cavα2δ-1 [1] = molecular target: T1, Cavα2δ-1; assay: SPR (Biacore) on immobilized peptide; type: binding, Oryctolagus cuniculus
T1 construct: gene CACNA2D1; chemically synthesized peptide surrounding the K615 locus ([…]; peptide P3)

Cavα2δ-1 [2] = test system: T1, Cavα2δ-1; assay: SPR (Biacore) on immobilized peptide; also […] lowers Cav2.[…] current in tsA201 cells, lost with R243A or K615A Cavα[…]δ-1; type: binding, Oryctolagus cuniculus

| SMILES | Kd (Cavα2δ-1 [1]) | Kd (Cavα2δ-1 [2]) |
| --- | --- | --- |
| CCC1=C[C@@H]2[C@H](C1)C[C@]2(CN)Cc1nnn[nH]1 [NVA1309] | 273 ± 101 µM | – |
| CCC1=C[C@@H]2[C@H](C1)C[C@]2(CN)CC(=O)O [mirogabalin] | – | 161 ± 60 µM |

— paper PMC11308618, “Determinants of interactions of a novel next-generation gabapentinoid NVA1309 and mirogabalin with the Cavα2δ-1 subunit” (Molecular Brain, 2024)
